The text below walks through data of patent US20030072716A1, “Renewable, carbohydrate based CO2-philes” (priority 2001, published 2003).

Data set [1] can be described thus: Solubility and cloud-point behaviour in supercritical CO2 at 40 °C. Format: physicochemical. The settings on record: for miscibility with CO2 from cloud-point data: scCO2, 40.0° C., relatively low pressures, up to 30% (wt); for solubility behaviour in supercritical CO2: supercritical CO2, 40° C. The method, then: The solubility of BGLU and AGLU in supercritical carbon dioxide were examined at 40° C. […] The behavior is illustrated in FIG. 3. At the cloud point pressure, phase separation commences between the supercritical carbon dioxide and the sugar ester melt. Upon lowering the pressure, the material reappears in the solid state (see FIG. 4).
The cloud-point pressures of these systems in scCO2 were examined at 40.0° C. As in the subcritical case, initially the solid melts and swells (for AGLU and BGLU) and all three peracetylated sugars readily go into a single-phase, scCO2 system. A plot of the cloud-point pressure versus the weight percent for AGLU, BGLU, and BGAL dissolved in supercritical CO2 at 40.0° C. is given in FIG. 4. At the cloud-point pressure, phase separation begins between scCO2 and the sugar ester. Upon lowering the pressure, the material reappears in the solid state. No cloud-point measurements were made above 30% (wt) due to limitations arising from the volume of the view cell and the rapid swelling of the sample in the cases of AGLU and BGLU.

Data set [2] in a line: Deliquescence, swelling and dissolution in CO2 in a high-pressure view cell near room temperature. Conditions: for solubility / miscibility in liquid CO2: BGLU at 23.0° C., 60.5 bar. Format: physicochemical. From the text: The interaction of BGLU in carbon dioxide was examined in a high-pressure view cell. The BGLU was exposed to carbon dioxide at near room temperature and a pressure of from 35 to 40 bar.
The procedure according to Example 1 was repeated except that the carbon dioxide pressure was 55.9 bar. A solid to liquid transition (i.e., deliquescence) of the BGLU was observed. […] See FIG. 3, Panel (C) and FIG. 3, Panel (D). Upon reaching liquid-vapor equilibrium pressure, the liquid carbon dioxide formed a separate layer on top of the viscous melt containing carbon dioxide.
BGLU is a white solid that melts at 132° C. under atmospheric pressure conditions (FIG. 3, Panel (A)). However, as BGLU is exposed to CO2 near room temperature (23.0° C.) in a conventional high-pressure view cell, it absorbs CO2 and becomes “wetted” with CO2 at a pressure of 35-40 bar. The white solid appears as a salt does in a humid environment. Furthermore, at a gaseous CO2 pressure of 55.9 bar a solid-to-liquid transition (deliquescence) occurs (FIG. 3, Panel (B)). This is analogous to the deliquescence of hygroscopic materials absorbing atmospheric moisture. […] Upon reaching the liquid-vapor equilibrium pressure, the liquid CO2 forms a separate layer on top of the viscous melt containing CO2. However, the melt easily mixes with the upper layer of liquid CO2 on stirring and forms a single-phase liquid mixture in contact with the gaseous CO2 phase (FIG. 3, Panel (E)). Further addition of CO2 only dilutes this liquid phase (FIG. 3F). Although, CO2-induced swelling (Rover et al., (1999) Macromolecules 32: 8965-8973) and CO2-assisted melting point depression (Zhang & Handa, (1997) Macromolecules 30: 8505-8507.) have been reported in polymers by sorption of CO2 under high pressures, the materials are not readily miscible in liquid and supercritical CO2, indicating the lack of a significant attractive interaction.

Consider `CC(=O)OC[C@H]1O[C@H](OC(C)=O)[C@H](OC(C)=O)[C@@H](OC(C)=O)[C@@H]1OC(C)=O` [AGLU, alpha 1,2,3,4,6-pentaacetyl-D-glucose], for which, in data set [1], the “miscibility with CO2 from cloud-point data” value was “complete miscibility”; the “solubility behaviour in supercritical CO2” value was “melted, swelled, and readily dissolved”. Further, in data set [2] (difference relative to BGLU), the “deliquescence point, amount lower than that of BGLU” value is 6-7 bar.
For the molecule `CC(=O)OC[C@H]1O[C@@H](OC(C)=O)[C@H](OC(C)=O)[C@@H](OC(C)=O)[C@@H]1OC(C)=O` [BGLU, beta 1,2,3,4,6-pentaacetyl-D-glucose], in data set [1], the “miscibility with CO2 from cloud-point data” value is “complete miscibility”; the “solubility behaviour in supercritical CO2” value was “melted, swelled, and readily dissolved”. The “concentration in the CO2-induced melt” value in data set [2] (approximate estimate, melt can be diluted with liquid or scCO2 in any proportion) was “more than 80 wt %”. Moreover, the “swelling of the melt on CO2 absorption” value in data set [2] (changes in gaseous CO2 pressure of only 2 and 3 bar above deliquescence pressure) is reported as “swells to many times its original volume”. Further, the “gaseous CO2 pressure at which solid-to-liquid transition (deliquescence) occurs” value in data set [2] (gaseous CO2, 23.0° C., high-pressure view cell) is listed as 55.9 bar. In data set [2], the “solubility / miscibility in liquid CO2” value was “complete miscibility”. For the same molecule, in data set [2] (near room temperature (23.0° C.)), the “CO2 pressure at which the solid absorbs CO2 and becomes wetted” value is recorded as 35-40 bar.
In the case of `CC(=O)OC[C@H]1O[C@@H](OC(C)=O)[C@H](OC(C)=O)[C@@H](OC(C)=O)[C@H]1OC(C)=O` [BGAL, beta 1,2,3,4,6-pentaacetyl β-D-galactose], in data set [2] (contact with CO2), the “deliquescence in CO2” value is on record as “does not exhibit deliquescence”. Besides, the “solubility / miscibility in liquid CO2” value in data set [2] was “readily soluble”.
